From ChEMBL document CHEMBL4513141, “CO-ADD screening of NIH (USA) - Clinical Collection” (2021)
Converted amounts (≈) assume the structure as drawn. Counter-ions that a name gives are not always drawn.

What was measured:
[1] = test system: Acinetobacter baumannii; experiment: microbe, parasite or virus in culture; conditions: ATCC 19606, 18 h, ASSAY_TEST Inhibition of Bacterial Growth, detection method Absorption (OD600), MEDIA CAMHB, plate type 384well, NBS, CORNING #3640
Description: Antibacterial activity against Acinetobacter baumannii ATCC 19606 (CO-ADD:GN_034); MIC in CAMBH media using NBS plates, by OD600

[2] = test system: Klebsiella pneumoniae; experiment: microbe, parasite or virus in culture; conditions: ATCC 700603, 18 h, ASSAY_TEST Inhibition of Bacterial Growth, detection method Absorption (OD600), MEDIA CAMHB, plate type 384well, NBS, CORNING #3640
Description: Antibacterial activity against Klebsiella pneumoniae MDR ATCC 70063 (CO-ADD:GN_003); MIC in CAMBH media using NBS plates, by OD(600)

[3] = test system: Candida albicans; experiment: microbe, parasite or virus in culture; conditions: ATCC 90028, ASSAY_TEST Inhibition of Fungal Growth, detection method Absorption (OD530), plate type 384well, NBS, CORNING #3640
Description: Antifungal activity against Candida albicans ATCC 90028 (CO-ADD:FG_001); MIC in YNB media using NBS plates, by OD630

[4] = test system: Staphylococcus aureus; experiment: microbe, parasite or virus in culture; conditions: ATCC 43300, 18 h, ASSAY_TEST Inhibition of Bacterial Growth, detection method Absorption (OD600), MEDIA CAMHB, plate type 384well, NBS, CORNING #3640
Description: Antibacterial activity against Staphylococcus aureus MRSA ATCC 43300 (CO-ADD:GP_020); MIC in CAMBH media, using NBS plates, by OD(600)

[5] = test system: Cryptococcus neoformans
Description: Antifungal activity against Cryptococcus neoformans H99 ATCC 208821 (CO-ADD:FG_002); MIC in YNB media using NBS plates, by Resazurin OD(600-570)

[6] = test system: Escherichia coli; experiment: microbe, parasite or virus in culture; conditions: ATCC 25922, 18 h, ASSAY_TEST Inhibition of Bacterial Growth, detection method Absorption (OD600), MEDIA CAMHB, plate type 384well, NBS, CORNING #3640
Description: Antibacterial activity against Escherichia coli ATCC 25922 (CO-ADD:GN_001); MIC in CAMBH media using NBS plates, by OD(600)

[7] = test system: HEK293; experiment: cells; type: functional, Homo sapiens, ATCC CRL1573; conditions: Homo sapiens, ATCC CRL1573, HEK293; ASSAY_TEST Inhibition of Cell Viability; detection method Resazurin; Fluorescence (ex560/em590); MEDIA DMEM with 10% FBS; plate type 384well; TC; CORNING #3712; time 18 hr
[8] = test system: Pseudomonas aeruginosa; experiment: microbe, parasite or virus in culture; conditions: ATCC 27853, 18 h, ASSAY_TEST Inhibition of Bacterial Growth, detection method Absorption (OD600), MEDIA CAMHB, plate type 384well, NBS, CORNING #3640
Description: Antibacterial activity against Pseudomonas aeruginosa ATCC 27853 (CO-ADD:GN_042); MIC in CAMBH media using NBS plates, by OD(600)

Compound	MIC [1]	MIC [2]	MIC [3]	MIC [4]	MIC [5]	MIC [6]	CC50 [7]	MIC [8]
CC(=O)[C@]1(O)Cc2c(O)c3c(c(O)c2[C@@H](O[C@H]2C[C@H](N)[C@H](O)[C@H](C)O2)C1)C(=O)c1ccccc1C3=O [IDARUBICIN HYDROCHLORIDE]	> 10 µM	> 10 µM	> 10 µM	5 µM	> 10 µM	> 10 µM	> 10 µM	> 10 µM
COC1=C(OC)C(=O)C(CCCCCCCCCCO)=C(C)C1=O [IDEBENONE]	> 10 µM	> 10 µM	> 10 µM	> 10 µM	> 10 µM	> 10 µM	> 10 µM	> 10 µM
CCc1c2c(nc3ccc(OC(=O)N4CCC(N5CCCCC5)CC4)cc13)-c1cc3c(c(=O)n1C2)COC(=O)[C@]3(O)CC [IRINOTECAN HYDROCHLORIDE]	> 10 µM	> 10 µM	> 10 µM	> 10 µM	> 10 µM	> 10 µM	0.341 µM	> 10 µM
CCC(C)n1ncn(-c2ccc(N3CCN(c4ccc(OCC5COC(Cn6cncn6)(c6ccc(Cl)cc6Cl)O5)cc4)CC3)cc2)c1=O (centres undefined) [ITRACONAZOLE]	> 10 µM	> 10 µM	≤ 0.0781 µM	> 10 µM	0.156 µM (≈ 0.11 µg/mL)	> 10 µM	> 10 µM	> 10 µM
CC(=O)N1CCN(c2ccc(OCC3COC(Cn4ccnc4)(c4ccc(Cl)cc4Cl)O3)cc2)CC1 (centres undefined) [KETOCONAZOLE]	> 10 µM	> 10 µM	0.156 µM (≈ 0.0831 µg/mL)	> 10 µM	2.5 µM (≈ 1.33 µg/mL)	> 10 µM	> 10 µM	> 10 µM
CCOC(=O)C1=C(C)NC(C)=C(C(=O)OCC)C1c1ccccc1/C=C/C(=O)OC(C)(C)C [LACIDIPINE]	> 10 µM	> 10 µM	> 10 µM	> 10 µM	> 10 µM	> 10 µM	> 10 µM	> 10 µM
CC(=O)NC[C@H]1CN(c2ccc(N3CCOCC3)c(F)c2)C(=O)O1 [LINEZOLID]	> 10 µM	> 10 µM	> 10 µM	2.5 µM (≈ 0.843 µg/mL)	> 10 µM	> 10 µM	4.46 µM	> 10 µM
CN(CCCN1c2ccccc2CCc2ccccc21)CC(=O)c1ccc(Cl)cc1 [LOFEPRAMINE]	> 10 µM	> 10 µM	> 10 µM	> 10 µM	> 10 µM	> 10 µM	> 10 µM	> 10 µM
Clc1ccc(COC(Cn2ccnc2)c2ccc(Cl)cc2Cl)c(Cl)c1 (centres undefined) [MICONAZOLE NITRATE]	> 10 µM	> 10 µM	≤ 0.0781 µM	> 10 µM	0.625 µM	> 10 µM	> 10 µM	> 10 µM
CN(C)c1ccc(O)c2c1C[C@H]1C[C@H]3[C@H](N(C)C)C(O)=C(C(N)=O)C(=O)[C@@]3(O)C(O)=C1C2=O [MINOCYCLINE HYDROCHLORIDE]	> 10 µM	> 10 µM	> 10 µM	0.312 µM	> 10 µM	2.5 µM	0.0983 µM	0.312 µM
COc1c(N2C[C@@H]3CCCN[C@@H]3C2)c(F)cc2c(=O)c(C(=O)O)cn(C3CC3)c12 [MOXIFLOXACIN HYDROCHLORIDE]	2.5 µM	5 µM	> 10 µM	0.156 µM	> 10 µM	≤ 0.0781 µM	> 10 µM	0.625 µM
C/C(=C\C(=O)OCCCCCCCCC(=O)O)C[C@@H]1OC[C@H](C[C@@H]2O[C@H]2[C@@H](C)[C@H](C)O)[C@@H](O)[C@H]1O [MUPIROCIN]	> 10 µM	> 10 µM	10 µM (≈ 5.01 µg/mL)	0.312 µM (≈ 0.156 µg/mL)	> 10 µM	> 10 µM	> 10 µM	> 10 µM
CCOc1ccc2ccccc2c1C(=O)N[C@@H]1C(=O)N2[C@@H]1SC(C)(C)[C@@H]2C(=O)O [NAFCILLIN SODIUM]	> 10 µM	> 10 µM	> 10 µM	1.25 µM	> 10 µM	> 10 µM	> 10 µM	> 10 µM
CCn1cc(C(=O)O)c(=O)c2ccc(C)nc21 [NALIDIXIC ACID]	> 10 µM	> 10 µM	> 10 µM	> 10 µM	> 10 µM	> 10 µM	> 10 µM	> 10 µM
CC(=O)Oc1ccccc1C(=O)Nc1ncc([N+](=O)[O-])s1 [NITAZOXANIDE]	> 10 µM	> 10 µM	> 10 µM	> 10 µM	> 10 µM	> 10 µM	> 10 µM	> 10 µM
O=C1CN(/N=C/c2ccc([N+](=O)[O-])o2)C(=O)N1 [NITROFURANTOIN]	> 10 µM	> 10 µM	> 10 µM	> 10 µM	> 10 µM	> 10 µM	> 10 µM	> 10 µM
CCn1cc(C(=O)O)c(=O)c2cc(F)c(N3CCNCC3)cc21 [NORFLOXACIN]	5 µM (≈ 1.6 µg/mL)	10 µM (≈ 3.19 µg/mL)	> 10 µM	5 µM (≈ 1.6 µg/mL)	> 10 µM	0.625 µM (≈ 0.2 µg/mL)	> 10 µM	> 10 µM
CC1COc2c(N3CCN(C)CC3)c(F)cc3c(=O)c(C(=O)O)cn1c23 (centres undefined) [OFLOXACIN]	5 µM (≈ 1.81 µg/mL)	5 µM (≈ 1.81 µg/mL)	> 10 µM	1.25 µM (≈ 0.452 µg/mL)	> 10 µM	≤ 0.0781 µM	> 10 µM	1.25 µM (≈ 0.452 µg/mL)
COc1ccc2[nH]c([S+]([O-])Cc3ncc(C)c(OC)c3C)nc2c1 (centres undefined) [OMEPRAZOLE MAGNESIUM]	> 10 µM	> 10 µM	> 10 µM	> 10 µM	> 10 µM	> 10 µM	> 10 µM	> 10 µM
COc1cc(C)c(Cc2cnc(N)nc2N)cc1OC [ORMETOPRIM]	> 10 µM	> 10 µM	> 10 µM	5 µM (≈ 1.37 µg/mL)	> 10 µM	5 µM (≈ 1.37 µg/mL)	> 10 µM	> 10 µM
Clc1ccc(CO/N=C(\Cn2ccnc2)c2ccc(Cl)cc2Cl)c(Cl)c1 [OXICONAZOLE NITRATE]	> 10 µM	> 10 µM	≤ 0.0781 µM	> 10 µM	≤ 0.0781 µM	> 10 µM	> 10 µM	> 10 µM
C[C@H]1COc2c(C3(N)CC3)c(F)cc3c(=O)c(C(=O)O)cn1c23 [PAZUFLOXACIN]	2.5 µM (≈ 0.796 µg/mL)	1.25 µM (≈ 0.398 µg/mL)	> 10 µM	0.625 µM (≈ 0.199 µg/mL)	> 10 µM	≤ 0.0781 µM	> 10 µM	1.25 µM (≈ 0.398 µg/mL)
CCn1cc(C(=O)O)c(=O)c2cc(F)c(N3CCN(C)CC3)cc21 [PEFLOXACIN MESYLATE]	10 µM	5 µM	> 10 µM	1.25 µM	> 10 µM	0.156 µM	> 10 µM	1.25 µM
CCN1CCN(C(=O)N[C@@H](C(=O)N[C@@H]2C(=O)N3[C@@H]2SC(C)(C)[C@@H]3C(=O)O)c2ccccc2)C(=O)C1=O [PIPERACILLIN SODIUM]	10 µM	> 10 µM	> 10 µM	> 10 µM	> 10 µM	10 µM	> 10 µM	> 10 µM
O=C(O)C[C@H](O)C[C@H](O)/C=C/c1c(C2CC2)nc2ccccc2c1-c1ccc(F)cc1 [PITAVASTATIN CALCIUM]	> 10 µM	> 10 µM	2.5 µM	> 10 µM	10 µM	> 10 µM	> 10 µM	> 10 µM
COc1cc(NC(C)CCCN)c2ncccc2c1 (centres undefined) [PRIMAQUINE PHOSPHATE]	> 10 µM	> 10 µM	> 10 µM	> 10 µM	> 10 µM	> 10 µM	> 10 µM	> 10 µM
CCc1nc(N)nc(N)c1-c1ccc(Cl)cc1 [PYRIMETHAMINE]	> 10 µM	> 10 µM	> 10 µM	5 µM (≈ 1.24 µg/mL)	> 10 µM	> 10 µM	> 10 µM	> 10 µM
CO[C@H]1/C=C/O[C@@]2(C)Oc3c(C)c(O)c4c(c3C2=O)C2=NC3(CCN(CC(C)C)CC3)NC2=C(NC(=O)/C(C)=C\C=C\[C@H](C)[C@H](O)[C@@H](C)[C@@H](O)[C@@H](C)[C@H](OC(C)=O)[C@@H]1C)C4=O [RIFABUTIN]	10 µM (≈ 8.47 µg/mL)	> 10 µM	> 10 µM	≤ 0.0781 µM	> 10 µM	5 µM (≈ 4.24 µg/mL)	> 10 µM	0.156 µM (≈ 0.132 µg/mL)
